In test [1] the target is NA enzymatic activity of A/Georgia/20/2006 H274Y (Influenza A virus (H1N1), UniProt B1AGS8). As to the kind of experiment: biochemical. Format: biochemical.
Test [2] addresses NA enzymatic activity of A/New Jersey/15/2007 (Influenza A virus (H1N1), UniProt D5F1R0, H275Y). Format: biochemical, IFV A (H1N1). The note with it: for R/S: A/New Jersey/15/2007, NI assay.
Test [3] has as its target NA enzymatic activity of A/St.Louis/758/09 (Influenza A virus, UniProt D0FH51, S5N). The experiment in a line: biochemical. Format: biochemical, IFV A (H1N1). The note with it: for R/S: NI assay.
The subject of test [4] is A/Victoria/3/75 (H3N2) with A28T(HA) and R292K(NA) mutations. Particulars: cited from earlier work.

Each structure is given as a SMILES string. Where two headings read alike, the source gives them in different places.

For orientation: IC50 means the concentration needed to halve the response being measured.

Take `CCC(CC)O[C@@H]1C=C(C(=O)O)C[C@H](N)[C@H]1NC(C)=O` [oseltamivir, oseltamivir carboxylate]: the R/S result in test [1], in test [2] and in test [3] (A/St.Louis/758/09) was “R” in each case. In addition, the IC50 in test [1] (read-out: IC50) is 192 nM; in test [2] (A/New Jersey/15/2007 reference virus, mean of triplicate analysis) it was 124 nM; in test [3] (A/St.Louis/758/09, mean of triplicate analysis, read-out: IC50), 88.4 nM. For the same molecule, the Resistance in test [4] was 3230 fold.
Turning to `CC(=O)N[C@H]1[C@H]([C@H](O)[C@H](O)CO)OC(C(=O)O)=C[C@@H]1N=C(N)N` [zanamivir], the IC50 amounted to 0.57 nM in test [1] and 0.34 nM in test [3]. The R/S result in test [1], in test [2] and in test [3] (A/St.Louis/758/09) was “S” in each case. In addition, the Resistance in test [4] was 60 fold.
